Values quoted from earlier work as cited in patent publication US20230321005A1, “PHYTONADIONE COMPOSITIONS” (CIPLA LIMITED, priority 2020, published 2023).

Tests used:
[1] = forms multiple peroxide and epoxy impurities

CC1=C(C/C=C(\C)CCC[C@H](C)CCC[C@H](C)CCCC(C)C)C(=O)c2ccccc2C1=O [Phytonadione, 2 - methyl - 3 - phytyl - 1, 4 - naphthoquinone]
Susceptibility to oxidative and photolytic degradation [1]: highly susceptible
Solubility in aqueous solvents: insoluble
